Assay results as given in patent publication US20250009763A1, “METHODS FOR EXTENDING LIFESPAN AND/OR DELAYING AGING” (priority 2023, published 2025).

Key:
[1] = system: tor1Δ deletion strain of yeast; assay: RLS of tor1Δ deletion strain; format: cell-based, Saccharomyces cerevisiae; conditions: data not shown
HUVECs = assay: Senescence-associated (SA)-β-gal staining; format: cell-based, human; conditions: HUVECs at PDL11, versus control without PN6; FIG. 3C
Method: For the population doubling (PD) assay, HUVECs (1×10^5 cells/3.5 cm dish) were propagated in the presence of DMSO (i.e., control) or PN6 (1 or 2 μM) until senescence (Day 41), and the cell numbers in each passage were recorded to generate a growth curve that represented the cumulative population doubling. The population doubling levels (PDLs) of HUVECs were calculated in every culture to indicate the proliferation capacity of HUVECs under the respective conditions. The population doublings (PDs) were estimated using the equation: PDL=3.32 (log (total viable cells at harvest/total viable cells at seeding). Also, HUVECs at passages PDL4 and PDL11 cultured in 0 μM (i.e., DMSO alone), 1 μM, or 2 μM PN6 were harvested for further analyses (e.g., western blot and SA-β-gal staining).
HUVECs at 90% confluency were collected, washed, and fixed with 2% formaldehyde and 0.2% glutaraldehyde for 5 minutes. The cells were then subjected to staining by incubation with a staining solution (40 mmol/l citric acid, sodium phosphate, pH 6.0, 1 mg/ml 5-bromo-4-chloro-3-isolyl-β-D-galactoside (X-gal, Sigma), 5 mmol/l potassium ferrocyanide, 5 mmol/l potassium ferricyanide, 150 mmol/l NaCl, and 2 mmol/l MgCl2) at 37° C. for 18-24 hours. The results of SA-β-gal-positive cells were observed by microscopy, and were counted for over 300 cells in at least three independent fields.

aged C57BL/6J mice [2] = assay: Grip strength test; format: in vivo, mouse; conditions: forelimbs, hindlimbs and all four limbs; mid-term and long-term; versus SD group; FIGS. 4E-4G
Method: The grip strength of the male C57BL/6J mice was measured at 87 weeks (mid-term) and 111 weeks (long-term) of age using an adjustable metallic grid mounted with a force sensor (DTG-5, DigiTech, JP). To conduct the test, the mice were placed on the aforementioned test device and were held gently by the tail, allowing them to grip the grid with forelimbs, hindlimbs, or four limbs (for measuring 2-paw and 4-paw grip strength, respectively). The device automatically measured and recorded the peak force in grams (g). Five trials were performed for each test, and the mean values were used to determine the grip strength of each mouse. Mid-term: SD, n=30; PN6, n=8; long-term: SD, n=23; PN6, n=8.

aged C57BL/6J mice [3] = assay: Rotarod test; format: in vivo, mouse; conditions: rotarod at constant or accelerating speed; mid-term and long-term; versus SD-fed mice; FIGS. 4H-4I
Method: The male C57BL/6J mice were subjected to a rotarod test at 88 weeks (mid-term) and 112 weeks (long-term) of age. The mice underwent a 3-day habituation period, during which they were placed on the rotarod at a constant speed (4 rpm), and were required to remain on the rotarod for 1 minute at a time every day. To conduct the actual test, each mouse was subjected to five trials, with a 10-15 minute rest period between each trial. For each trial, the tests for the constant and accelerated speeds were conducted sequentially according to the following schedule: During a 5-minute trial period, a run consisted of an initial constant rotating speed of 4 rpm and a subsequent accelerated rotating speed accelerated from 4 to 40 rpm was performed 5 times. […] The latency to falling was recorded, and the average latency to falling was calculated for each trial. Data are presented as the average of the 5 trials. Mid-term: SD, n=30; PN6, n=8; long-term: SD, n=22; PN6, n=8.

aged C57BL/6J mice [4] = assay: Intraperitoneal insulin tolerance test (IpITT); format: in vivo, mouse; conditions: 107 weeks of age, versus SD; FIGS. 4J-4K
Method: The male C57BL/6J mice, aged 107 weeks, were fasted for […] while having free access to water, and their body weights were measured before the test started. The test was conducted by fasting the mice for 5 hours, and then injecting them with 1.25 U/kg of human recombinant insulin. Blood droplets were collected from the tail vein just prior to the insulin injection (time 0; baseline), and at 15, 30, 60, and 90 minutes following the injection. Blood glucose levels were measured using a blood glucose meter (Accu-Chek Guide; Roche, DE).

aged C57BL/6J mice [5] = assay: Metabolic breath analysis test; format: in vivo, mouse; conditions: versus SD
Method: The metabolic breath analysis test was carryout out using the OxyletPro System. The male C57BL/6J mice fed a standard rodent chow with or without 50 mg/kg PN6 for 22 weeks (at 72 weeks of age; mid-term) were placed in the metabolic cages of the OxyletPro System for a 24-hour habituation period before actual recordings and remained in the cages for the following 48 hours. The OxyletPro System was equipped with an air supply and switching unit that provided independent flow control to the cage and collected the products produced therein. The gas analyzer was connected in tandem to the OxyletPro System for O2 and CO2 concentration analyses, from which the oxygen consumption (VO2), the carbon dioxide production (VCO2), and the energy expenditure (EE) were automatically calculated. SD, n=12; PN6, n=7.

aged C57BL/6J mice [6] = assay: Survival, body weight and food intake of aged mice

SMILES: CCC(CC[C@@H](C)C1CCC2C3CC(=O)[C@H]4C[C@@H](O)CC[C@]4(C)C3CC[C@@]21C)C(C)C (stereo in doubt) [PN6, (24S)-3β-hydroxy-5α-stigmastan-6-one]
- ability to increase yeast RLS upon deletion of the TOR1 gene [1]: not affected
- number of SA-β-gal-positive senescent cells (HUVECs): decrease in the number
- grip strength (aged C57BL/6J mice [2]): increased grip strength
- motor skills (latency to falling) (aged C57BL/6J mice [3]): steadily improved
- insulin sensitivity (aged C57BL/6J mice [4]): significantly higher
- rate of O2 consumption (aged C57BL/6J mice [5]; FIG. 4L): significantly higher
- rate of CO2 elimination (aged C57BL/6J mice [5]; FIG. 4M): significantly higher
- respiratory quotient (aged C57BL/6J mice [5]; FIG. 4N): higher
- energy expenditure (aged C57BL/6J mice [5]; FIG. 4O): higher
- trajectories of body weight (aged C57BL/6J mice [6]; chow containing 50 mg/kg PN6, FIG. 4B): remained in a steady state
- lifespan of the aged mice (aged C57BL/6J mice [6]; chow containing 50 mg/kg PN6, versus SD group, FIG. 4A): significantly increased the lifespan
- food intake (aged C57BL/6J mice [6]; versus SD group, entire course of the experiment, FIG. 4C): did not diverge
